Laboratory results from patent US12391664B2, “GluN2C/D subunit selective antagonists of the N-methyl-D-aspartate receptor” (Emory University, priority 2018, dated 2025).
Where two headings read alike, the source gives them in different places. Marks after values point to notes of the source that are not given here.

Assays:
Assay type in all cases: cell-based
[1] = target: T1, recombinant rat GluN1/GluN2D (Rattus norvegicus, UniProt P35439+Q62645); experiment: Two-electrode voltage-clamp recordings in Xenopus laevis oocytes, GluN2D
T1 construct: expressed in transfected cells; host or cells: Xenopus laevis oocytes injected with cRNA (GluN1:GluN2 ratio 1:2)
Method: (§1) All target compounds were evaluated for activity by the Traynelis laboratory at Emory University using two-electrode voltage-clamp recordings performed in Xenopus laevis oocytes expressing recombinant GluN2A-D subunits (Table 1). […] Two ester compounds 997-65 and 997-66 also performed no inhibition at GluN2A to GluN2D receptors. […] Consequently, for the compounds that Acker et al. already published, it was necessary to increase the concentration to 100 μM when collecting data for a concentration effect curve. […] Therefore, under this condition, we can only conclude that compound 997-67 remained potent at GluN2C/D-containing receptors, but its selectivity over GluN2A- and GluN2B-containing receptors could not be compared to 997-57. […] Finally, replacing the carboxylic acid to the bio-isostere amide yielded compounds 997-96 and 997-115, which dropped the potency 2- to 4-fold in comparison to their corresponding acids 997-74 and 997-114.
(§2) Two-electrode voltage-clamp recordings were performed in Xenopus laevis oocytes that were injected with mRNA to express recombinant rat GluN1/GluN2A, GluN1/GluN2B, GluN1/GluN2C, and GluN1/GluN2D. The recordings using unfertilized oocytes from Xenopus laevis were permitted by Emory University Institutional Animal Care and Use Committee (IACUC). An automatic injector (Nanoject II, Drummond Scientific) was used for cRNA injection using the pipettes filled with mineral oil. The cRNA that transcribed in vitro via the mMessage Machine kit (Ambion) was diluted with nuclease-free water, and then injected at GluN1/GluN2 with a ratio of 1:2. The oocytes were stored in Barth's solution that contained 88 mM NaCl, 5.0 mM Tris-HCl, 2.4 mM NaHCO3, 1.0 mM KCl, 0.84 mM MgSO4, 0.41 mM CaCl2, 0.33 mM Ca(NO3)2, 0.1 mg/ml gentamycin sulfate, 1.0 U/ml penicillin, and 1 μg/ml streptomycin at a pH of 7.4 and temperatures of 15-17° C. for two to five days before the two-electrode voltage-clamp recordings. When recording, the oocytes were placed in a perfusion chamber and continually washed with the recording solution comprised of 90 mM NaCl, 1.0 mM KCl, 0.50 mM BaCl2, 0.005 mM EDTA, and 10 mM HEPES at a pH of 7.4 and a temperature of 23° C. Glass electrodes with a tip resistance of 0.5 to 2.5 MΩ were obtained from thin-walled glass capillary tubes. Voltage electrodes and current electrodes were filled with 0.3 M and 3.0 M KCl, respectively. The recordings were executed with the oocytes membrane potential holding at −40 m V by an OC-725 amplifier (Warner Instrument Co). All compounds were dissolved in dimethyl sulfoxide (DMSO) as 20 mM stock solutions and future diluted to reach the desired concentration (0.05-0.5% (vol/vol) DMSO) in recording solution comprised of 30 μM glycine and 100 μM glutamate. Each compound was recorded 3-7 times in the least 4 oocytes from at least 2 different Xenopus laevis.
(§3) To evaluate the inhibition of compounds, the concentration-response curve was fitted with the average two-electrode voltage-clamp recording results with the equation
(§4) [formula] • where IC50 is the concentration of compounds that inhibit half maximal of the current response and N is the Hill slope.

[2] = target: T2, recombinant rat GluN1/GluN2D (Rattus norvegicus, UniProt Q62645); experiment: as above; conditions: for 2A IC50 / 2D IC50 / 2B IC50 / 2D IC50: ratio of IC50 values
T2 construct: expressed in transfected cells; host or cells: Xenopus laevis oocytes injected with cRNA (GluN1:GluN2 ratio 1:2)
Method: as §1, §2, §3, §4

[3] = target: T3, recombinant rat GluN1/GluN2C (Rattus norvegicus, UniProt Q00961); experiment: Two-electrode voltage-clamp recordings in Xenopus laevis oocytes, GluN2C; conditions: 3 μM compound with 100 μM glutamate and 30 μM glycine, control set as 1
T3 construct: expressed in transfected cells; host or cells: Xenopus laevis oocytes injected with cRNA (GluN1:GluN2 ratio 1:2)
Method: as §1, §2, §3, §4

[4] = target: T4, recombinant rat GluN1/GluN2C (Rattus norvegicus, UniProt P35439+Q00961); experiment: as above
T4 construct: expressed in transfected cells; host or cells: Xenopus laevis oocytes injected with cRNA (GluN1:GluN2 ratio 1:2)
Method: as §1, §2, §3, §4

[5] = target: T5, recombinant rat GluN1/GluN2A (Rattus norvegicus, UniProt P35439+Q00959); experiment: Two-electrode voltage-clamp recordings in Xenopus laevis oocytes, GluN2A; conditions: oocytes, 100 μM glutamate and 30 μM glycine
T5 construct: expressed in transfected cells; host or cells: Xenopus laevis oocytes injected with cRNA (GluN1:GluN2 ratio 1:2)
Method: as §1, §2, §3, §4

[6] = target: T6, recombinant rat GluN1/GluN2A (Rattus norvegicus, UniProt Q00959); experiment: as above; conditions: 3 μM compound with 100 μM glutamate and 30 μM glycine, control set as 1
T6 construct: expressed in transfected cells; host or cells: Xenopus laevis oocytes injected with cRNA (GluN1:GluN2 ratio 1:2)
Method: as §1, §2, §3, §4

[7] = target: T7, recombinant rat GluN1/GluN2B (Rattus norvegicus, UniProt Q00960); experiment: Two-electrode voltage-clamp recordings in Xenopus laevis oocytes, GluN2B; conditions: 3 μM compound with 100 μM glutamate and 30 μM glycine, control set as 1
T7 construct: expressed in transfected cells; host or cells: Xenopus laevis oocytes injected with cRNA (GluN1:GluN2 ratio 1:2)
Method: as §1, §2, §3, §4

[8] = target: T8, recombinant rat GluN1/GluN2B (Rattus norvegicus, UniProt P35439+Q00960); experiment: as above; conditions: oocytes, 100 μM glutamate and 30 μM glycine
T8 construct: expressed in transfected cells; host or cells: Xenopus laevis oocytes injected with cRNA (GluN1:GluN2 ratio 1:2)
Method: as §1, §2, §3, §4

[9] = mean IC50 with bottom and top 95% confidence interval, read-out: Avg. GluN2D IC50 (95% CI)
[10] = oocytes, 100 μM glutamate and 30 μM glycine, read-out: GluN2D IC50
[11] = mean IC50 with bottom and top 95% confidence interval, read-out: Avg. GluN2C IC50 (95% CI)
[12] = oocytes, 100 μM glutamate and 30 μM glycine, read-out: GluN2C IC50
[13] = read-out: IC50 at GluN2D-containing receptors

T1 sequence (Q62645 28-1323, other chains not shown): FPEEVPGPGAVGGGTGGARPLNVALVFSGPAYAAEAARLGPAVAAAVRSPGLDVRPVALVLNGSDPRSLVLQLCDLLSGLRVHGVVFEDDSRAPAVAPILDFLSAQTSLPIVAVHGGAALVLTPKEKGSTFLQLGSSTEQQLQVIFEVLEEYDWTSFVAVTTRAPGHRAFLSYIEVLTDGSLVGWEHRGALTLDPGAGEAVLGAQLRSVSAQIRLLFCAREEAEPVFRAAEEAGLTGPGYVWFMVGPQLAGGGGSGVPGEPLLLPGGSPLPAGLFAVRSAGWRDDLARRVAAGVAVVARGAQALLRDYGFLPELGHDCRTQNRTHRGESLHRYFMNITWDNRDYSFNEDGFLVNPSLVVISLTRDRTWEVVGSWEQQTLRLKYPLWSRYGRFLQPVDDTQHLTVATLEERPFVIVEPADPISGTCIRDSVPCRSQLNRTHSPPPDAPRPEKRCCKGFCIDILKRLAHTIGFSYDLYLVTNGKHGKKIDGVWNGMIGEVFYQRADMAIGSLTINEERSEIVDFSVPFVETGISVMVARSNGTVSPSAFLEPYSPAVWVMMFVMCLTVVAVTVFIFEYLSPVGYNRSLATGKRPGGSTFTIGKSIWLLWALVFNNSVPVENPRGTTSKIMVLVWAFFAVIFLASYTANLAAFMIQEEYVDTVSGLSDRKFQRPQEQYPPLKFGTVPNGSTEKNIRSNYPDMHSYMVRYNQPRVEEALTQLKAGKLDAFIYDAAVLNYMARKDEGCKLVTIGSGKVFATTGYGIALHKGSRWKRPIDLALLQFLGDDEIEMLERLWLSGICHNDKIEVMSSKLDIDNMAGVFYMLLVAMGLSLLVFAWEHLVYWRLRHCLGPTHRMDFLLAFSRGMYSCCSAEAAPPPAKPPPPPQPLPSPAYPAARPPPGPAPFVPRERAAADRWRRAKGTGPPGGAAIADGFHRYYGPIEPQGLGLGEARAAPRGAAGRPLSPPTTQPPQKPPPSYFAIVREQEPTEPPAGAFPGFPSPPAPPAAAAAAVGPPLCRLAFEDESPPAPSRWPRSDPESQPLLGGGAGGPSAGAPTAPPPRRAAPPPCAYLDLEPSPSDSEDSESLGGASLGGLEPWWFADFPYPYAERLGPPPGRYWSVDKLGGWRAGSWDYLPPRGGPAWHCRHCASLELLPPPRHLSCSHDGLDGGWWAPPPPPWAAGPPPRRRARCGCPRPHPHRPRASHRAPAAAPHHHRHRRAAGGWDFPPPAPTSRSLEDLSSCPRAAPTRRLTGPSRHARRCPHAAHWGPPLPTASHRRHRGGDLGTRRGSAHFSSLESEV
T2 sequence (Q62645 28-1323, other chains not shown): as above
T8 sequence (Q00960 27-1482, other chains not shown): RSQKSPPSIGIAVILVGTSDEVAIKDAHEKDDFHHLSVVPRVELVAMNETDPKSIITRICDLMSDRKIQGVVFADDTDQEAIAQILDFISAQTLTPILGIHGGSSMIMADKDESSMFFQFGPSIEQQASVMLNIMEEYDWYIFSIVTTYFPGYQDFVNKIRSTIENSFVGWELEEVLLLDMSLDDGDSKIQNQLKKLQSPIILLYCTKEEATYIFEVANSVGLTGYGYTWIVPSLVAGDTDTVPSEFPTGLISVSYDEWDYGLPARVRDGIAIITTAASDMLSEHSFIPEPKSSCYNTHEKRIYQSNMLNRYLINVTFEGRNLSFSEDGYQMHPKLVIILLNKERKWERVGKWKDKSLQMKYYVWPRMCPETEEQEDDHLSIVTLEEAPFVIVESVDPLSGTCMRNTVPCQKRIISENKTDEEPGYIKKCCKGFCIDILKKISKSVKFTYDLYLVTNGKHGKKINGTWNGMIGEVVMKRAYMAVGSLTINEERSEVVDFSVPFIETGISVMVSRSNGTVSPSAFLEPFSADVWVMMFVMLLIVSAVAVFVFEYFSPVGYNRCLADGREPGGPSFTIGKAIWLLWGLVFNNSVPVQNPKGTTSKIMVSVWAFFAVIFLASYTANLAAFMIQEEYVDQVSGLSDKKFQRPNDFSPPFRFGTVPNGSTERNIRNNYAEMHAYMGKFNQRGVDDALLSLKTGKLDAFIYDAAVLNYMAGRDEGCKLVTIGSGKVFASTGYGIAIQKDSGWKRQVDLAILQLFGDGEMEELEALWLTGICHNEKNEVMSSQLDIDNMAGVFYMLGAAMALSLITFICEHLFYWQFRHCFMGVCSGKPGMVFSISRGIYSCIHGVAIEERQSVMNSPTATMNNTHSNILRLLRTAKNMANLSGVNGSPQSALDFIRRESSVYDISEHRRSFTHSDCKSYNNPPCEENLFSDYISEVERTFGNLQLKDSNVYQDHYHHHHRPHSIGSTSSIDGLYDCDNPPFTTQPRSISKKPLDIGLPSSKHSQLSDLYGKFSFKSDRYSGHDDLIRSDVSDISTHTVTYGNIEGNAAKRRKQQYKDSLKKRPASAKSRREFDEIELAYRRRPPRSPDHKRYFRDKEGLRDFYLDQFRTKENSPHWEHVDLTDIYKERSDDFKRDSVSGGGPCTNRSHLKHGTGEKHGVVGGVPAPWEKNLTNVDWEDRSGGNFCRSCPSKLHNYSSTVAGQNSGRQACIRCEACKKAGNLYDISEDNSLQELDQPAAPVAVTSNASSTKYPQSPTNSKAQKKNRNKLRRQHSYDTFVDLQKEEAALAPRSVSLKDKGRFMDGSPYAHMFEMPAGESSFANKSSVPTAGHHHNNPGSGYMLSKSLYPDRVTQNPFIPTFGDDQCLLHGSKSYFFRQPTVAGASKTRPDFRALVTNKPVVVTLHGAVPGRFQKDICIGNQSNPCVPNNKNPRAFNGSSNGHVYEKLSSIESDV
T5 sequence (Q00959 23-1464, other chains not shown): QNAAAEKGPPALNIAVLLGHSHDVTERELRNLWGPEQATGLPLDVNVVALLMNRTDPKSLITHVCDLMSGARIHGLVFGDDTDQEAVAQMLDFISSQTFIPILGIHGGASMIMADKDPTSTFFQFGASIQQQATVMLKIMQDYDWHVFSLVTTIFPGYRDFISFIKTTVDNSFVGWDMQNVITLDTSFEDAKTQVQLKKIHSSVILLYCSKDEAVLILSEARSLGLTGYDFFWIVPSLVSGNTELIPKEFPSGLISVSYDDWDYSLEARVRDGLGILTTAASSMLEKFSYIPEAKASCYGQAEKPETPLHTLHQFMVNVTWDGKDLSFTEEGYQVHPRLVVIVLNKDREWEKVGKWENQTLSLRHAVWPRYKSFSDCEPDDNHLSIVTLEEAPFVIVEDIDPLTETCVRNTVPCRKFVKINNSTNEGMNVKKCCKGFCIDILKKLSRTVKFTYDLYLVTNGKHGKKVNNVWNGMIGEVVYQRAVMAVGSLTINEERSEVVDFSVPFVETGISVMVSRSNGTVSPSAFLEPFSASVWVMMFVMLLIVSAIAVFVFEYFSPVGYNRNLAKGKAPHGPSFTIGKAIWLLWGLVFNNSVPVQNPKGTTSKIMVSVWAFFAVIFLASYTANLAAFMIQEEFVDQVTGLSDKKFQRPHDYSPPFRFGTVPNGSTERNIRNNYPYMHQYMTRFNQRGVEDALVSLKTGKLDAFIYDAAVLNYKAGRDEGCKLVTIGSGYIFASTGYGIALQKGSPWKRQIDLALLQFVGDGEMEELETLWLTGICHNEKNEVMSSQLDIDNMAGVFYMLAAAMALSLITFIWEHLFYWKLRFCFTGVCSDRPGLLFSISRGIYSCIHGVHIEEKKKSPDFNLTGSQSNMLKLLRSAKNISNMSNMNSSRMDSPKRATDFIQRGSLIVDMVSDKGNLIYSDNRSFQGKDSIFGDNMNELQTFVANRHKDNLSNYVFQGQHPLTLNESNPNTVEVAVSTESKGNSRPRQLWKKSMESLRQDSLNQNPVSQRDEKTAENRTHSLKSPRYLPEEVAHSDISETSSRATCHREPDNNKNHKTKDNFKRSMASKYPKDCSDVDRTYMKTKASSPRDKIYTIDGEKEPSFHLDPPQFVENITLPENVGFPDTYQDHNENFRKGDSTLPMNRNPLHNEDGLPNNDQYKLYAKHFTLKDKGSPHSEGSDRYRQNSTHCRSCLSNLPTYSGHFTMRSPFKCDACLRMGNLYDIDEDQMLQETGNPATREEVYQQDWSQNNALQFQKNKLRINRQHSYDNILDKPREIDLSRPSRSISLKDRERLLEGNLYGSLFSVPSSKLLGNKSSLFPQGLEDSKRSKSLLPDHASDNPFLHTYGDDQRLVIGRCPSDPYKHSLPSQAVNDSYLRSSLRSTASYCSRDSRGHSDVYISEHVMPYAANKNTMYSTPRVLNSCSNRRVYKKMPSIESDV

Row | SMILES | IC50 [1, 10] [nM] | IC50 [4, 12] [nM] | IC50 [5] [nM] | IC50 [8] [nM] | 2B IC50 / 2D IC50 [2] | also measured
1 | Cc1ccc2[nH]c(=O)c(C3=NN(C(=O)C(F)(F)CC(=O)O)C(c4ccc(Cl)cc4)C3)c(-c3ccc(Cl)cc3)c2c1 (single isomer, unassigned; (+)) [(+)-997-90] | < 1000 | 2100 | 4100 | 1800 |  | IC50 [1, 9]: 660 nM; I/Icontrol (mean ± SEM, %) GluN2D, data with ** ([2]; 1 μM compound with 100 μM glutamate and 30 μM glycine, control set as 1): 31 ± 9.8** %; I3 μM/Icontrol (mean ± SEM, %) GluN2C ([3]; listed as (+)-90): 36 ± 3.0%; IC50 [4, 11]: 2100 nM; I3 μM/Icontrol (mean ± SEM, %) GluN2A ([6]; listed as (+)-90): 72 ± 2.9%; I3 μM/Icontrol (mean ± SEM, %) GluN2B ([7]; listed as (+)-90): 53 ± 3.6%
2 | O=C(O)CCC(=O)N1N=C(c2c(-c3ccc(Cl)cc3)c3ccccc3[nH]c2=S)CC1c1ccc(Cl)cc1 (stereo not shown) [997-97, 4-(5-(4-chlorophenyl)-3-(4-(4-chlorophenyl)-2-thioxo-1,2-dihydroquinolin-3-yl)-4,5-dihydro-1H-pyrazol-1-yl)-4-oxobutanoic acid] | 350 | 480 | 16000 | 30000 | 86 | 2A IC50 / 2D IC50 [2]: 46
3 | O=C(O)CC(F)(F)C(=O)N1N=C(c2c(-c3ccc(Cl)cc3)c3ccccc3[nH]c2=O)CC1c1ccc(F)cc1 (stereo not shown) [997-104, 4-(3-(4-(4-chlorophenyl)-2-oxo-1,2-dihydroquinolin-3-yl)-5-(4-fluorophenyl)-4,5-dihydro-1H-pyrazol-1-yl)-3,3-difluoro-4-oxobutanoic acid] | 810 | 1600 | 20000 | 30000 | 37 | fold decrease of potency at GluN2D in comparison to 997-74 ([2]; comparator 997-74): 16 fold
4 | O=C(O)CCC(=O)N1N=C(c2c(-c3ccc(Cl)s3)c3ccccc3[nH]c2=O)CC1c1ccc(Cl)cc1 (stereo not shown) [997-108, 4-(5-(4-chlorophenyl)-3-(4-(5-chlorothiophen-2-yl)-2-oxo-1,2-dihydroquinolin-3-yl)-4,5-dihydro-1H-pyrazol-1-yl)-4-oxobutanoic acid] | 400 | 670 | 13000 | 23000 |  | 
5 | O=C(O)CCC(=O)N1N=C(c2c(-c3ccc(Cl)cc3)c3ccccc3[nH]c2=O)CC1c1ccc(Cl)s1 (stereo not shown) [997-111, 4-(3-(4-(4-chlorophenyl)-2-oxo-1,2-dihydroquinolin-3-yl)-5-(5-chlorothiophen-2-yl)-4,5-dihydro-1H-pyrazol-1-yl)-4-oxobutanoic acid] | 800 | 1300 | 21000 | 34000 | 43 | 
6 | O=C(O)CC(F)(F)C(=O)N1N=C(c2ccccc2-c2ccc(Cl)cc2)CC1c1ccc(OC(F)(F)F)cc1 (stereo not shown) [997-117, 4-(3-(4′-chloro-[1,1′-biphenyl]-2-yl)-5-(4-(trifluoromethoxy)phenyl)-4,5-dihydro-1H-pyrazol-1-yl)-3,3-difluoro-4-oxobutanoic acid] | 2870 | 3440 | 17200 | 8790 | 3 | 
7 | O=C(O)CC(F)(F)C(=O)N1N=C(c2ccccc2-c2ccc(Cl)cc2)CC1c1ccc(Cl)s1 (stereo not shown) [997-118, 4-(3-(4′-chloro-[1,1′-biphenyl]-2-yl)-5-(5-chlorothiophen-2-yl)-4,5-dihydro-1H-pyrazol-1-yl)-3,3-difluoro-4-oxobutanoic acid] | 3740 | 3690 | 9010 | 12000 | 3 | 
8 | O=C(O)CC(F)(F)C(=O)N1N=C(c2ccccc2-c2ccc(F)c(Cl)c2)CC1c1ccc(Cl)cc1 (stereo not shown) [997-120, 4-(3-(3′-chloro-4′-fluoro-[1,1′-biphenyl]-2-yl)-5-(4-chlorophenyl)-4,5-dihydro-1H-pyrazol-1-yl)-3,3-difluoro-4-oxobutanoic acid] | 3360 | 5230 | 11000 | 8800 |  | 

Stronger by IC50 [4, 12], values ahead:

Row | IC50 [1, 10] [nM] | IC50 [4, 12] [nM] | IC50 [5] [nM] | IC50 [8] [nM] | 2B IC50 / 2D IC50 [2] | SMILES | also measured
9 | 200 | 350 | 13000 | 20000 | 100 | O=C(O)CCC(=O)N1N=C(c2c(-c3ccc(Cl)cc3)c3ccccc3[nH]c2=O)CC1c1ccc(C(F)(F)F)cc1 (stereo not shown) [997-112, 4-(3-(4-(4-chlorophenyl)-2-oxo-1,2-dihydroquinolin-3-yl)-5-(4-(trifluoromethyl)phenyl)-4,5-dihydro-1H-pyrazol-1-yl)-4-oxobutanoic acid] | 
10 |  | 338 | 5670 | 8150 | 48 | O=C(CC(F)(F)C(=O)O)N1N=C(c2c(-c3ccc(Cl)cc3)c3ccccc3[nH]c2=O)CC1c1ccc(Cl)cc1 (stereo not shown) [997-114, 4-(5-(4-chlorophenyl)-3-(4-(4-chlorophenyl)-2-oxo-1,2-dihydroquinolin-3-yl)-4,5-dihydro-1H-pyrazol-1-yl)-2,2-difluoro-4-oxobutanoic acid] | IC50 [1, 13]: 170 nM; 2A IC50 / 2D IC50 [2]: 33
11 |  | 280 | 2600 | 4000 |  | O=C(O)CC(F)(F)C(=O)N1N=C(c2c(-c3ccc(Cl)s3)c3ccccc3[nH]c2=O)CC1c1ccc(Cl)cc1 (stereo not shown) [997-109, 4-(5-(4-chlorophenyl)-3-(4-(5-chlorothiophen-2-yl)-2-oxo-1,2-dihydroquinolin-3-yl)-4,5-dihydro-1H-pyrazol-1-yl)-3,3-difluoro-4-oxobutanoic acid] | IC50 [1, 13]: 100 nM
12 | 130 | 200 | 1900 | 1900 |  | Cc1ccc2[nH]c(=O)c(C3=NN(C(=O)C(F)(F)CC(=O)O)C(c4ccc(Cl)cc4)C3)c(-c3ccc(Cl)cc3)c2c1 (single isomer, unassigned; (-)) [(−)-997-90] | IC50 [1, 9]: 130 nM; I3 μM/Icontrol (mean ± SEM, %) GluN2D ([2]; 3 μM compound with 100 μM glutamate and 30 μM glycine, control set as 1): 3.4 ± 1.2%; I3 μM/Icontrol (mean ± SEM, %) GluN2C ([3]; listed as (−)-90): 7.0 ± 2.2%; IC50 [4, 11]: 210 nM; I3 μM/Icontrol (mean ± SEM, %) GluN2A ([6]; listed as (−)-90): 33 ± 4.5%; I3 μM/Icontrol (mean ± SEM, %) GluN2B ([7]; listed as (−)-90): 34 ± 5.0%
13 | 80 | 170 | 2300 | 2900 | 36 | O=C(O)CC(F)(F)C(=O)N1N=C(c2c(-c3ccc(Cl)cc3)c3ccccc3[nH]c2=O)CC1c1ccc(C(F)(F)F)cc1 (stereo not shown) [997-113, 4-(3-(4-(4-chlorophenyl)-2-oxo-1,2-dihydroquinolin-3-yl)-5-(4-(trifluoromethyl)phenyl)-4,5-dihydro-1H-pyrazol-1-yl)-3,3-difluoro-4-oxobutanoic acid] | 
14 |  | 70 | 3000 | 11000 | 183 | O=C(O)/C=C(/F)C(=O)N1N=C(c2c(-c3ccc(Cl)cc3)c3ccccc3[nH]c2=O)CC1c1ccc(Cl)cc1 (stereo not shown) [997-101, (E)-4-(5-(4-chlorophenyl)-3-(4-(4-chlorophenyl)-2-oxo-1,2-dihydroquinolin-3-yl)-4,5-dihydro-1H-pyrazol-1-yl)-3-fluoro-4-oxobut-2-enoic acid] | IC50 [1, 13]: 60 nM; selectivity at GluN2D- over GluN2A-containing receptor [2]: 50 fold; 2A IC50 / 2D IC50 [2]: 50
